Tests used:
α-synuclein [1] = assay: Immunoblot analysis of α-synuclein in SDS-soluble and SDS-insoluble brain homogenate fractions; type: in vivo; conditions: brain homogenates of α-syn-tg mice; 5 mg/kg IP daily for four weeks
Procedure: (§1) Five-month-old non-tg and α-syn-tg female mice were injected intra-peritoneally (IP) with either vehicle (40% captisol) or 5 mg/kg of hypoestoxide daily for four weeks. The right hemibrains were post-fixed in phosphate-buffered 4% PFA at 4° C. for neuropathological analysis, while the left hemibrains were snap-frozen and stored at −70° C. for subsequent protein and mRNA analysis.
(§2) Brain homogenates were prepared in the lysis buffer to separate SDS-soluble and SDS-insoluble fractions. Chemiluminescence detection and analysis were performed using Versadoc XL imaging apparatus and Quantity One (Bio-rad, Hercules, Calif.).
FIGS. 3F-3G show the results of a biochemical analysis. Brain homogenates were separated into SDS-soluble and SDS-insoluble factions, and analyzed by immunoblot analysis. The levels of α-synuclein in SDS-soluble fractions from α-syn tg mice were not affected by HE administration. […] A positive interactive effect of HE treatment on the level of SDS-insoluble α-synuclein (Finteraction (1, 16)=8.68, p=0.0095) was confirmed by two-way ANOVA.

α-syn-tg mice [2] = assay: Quantitative gene expression analysis (qPCR) of pro-inflammatory cytokines; type: in vivo; conditions: neocortex of α-syn-tg mice; 5 mg/kg IP daily for four weeks
Procedure: as §1
(§3) Total mRNA was extracted from mice frontal cortex using RNeasy Lipid mini kit (Qiagen, Germantown, Md.) and reverse transcribed using SuperScript VILO cDNA synthesis kit (Life Technologies), respectively. Quantitative real-time PCR was performed using TaqMan® Fast Advanced Master Mix (Life Technologies) according to manufacturer's instructions with gene specific primers obtained from Life Technologies, such as TNFα (Mm00443258_m1), IL6 (Mm00446190_m1), IL-1β (Mm00434228_m1), and β-actin (Mm00607939_s1). Amplification of DNA products was measured by the StepOnePlus real-time PCR system (Applied Biosystems, Carlsbad, Calif.). Relative mRNA levels were calculated according to the 2-exp (ΔΔCt) method. All ΔCT values were normalized to β-actin.
(§4) The levels of pro-inflammatory cytokines were analyzed using immunohistochemical analysis and gene expression analysis. The levels of TNFα, IL-1ß and IL6 were increased in α-syn-tg mice compared to non-tg mice. […] A positive interactive effect of HE treatment on the levels of TNFα (Finteraction (1, 16)=12.34, p=0.0029), IL-1β (Finteraction (1, 16)=11.58, p=0.0036), and IL6 (Finteraction (1, 16)=31.06, p<0.0001) was confirmed by two-way ANOVA. […] A positive interactive effect of HE treatment on the mRNA levels of TNFα (Finteraction (1, 16)=15.78, p=0.0019), IL-1β (Finteraction (1, 16)=11.65, p=0.0051), and IL6 (Finteraction (1, 16)=6.40, p=0.0264) was confirmed by two-way ANOVA.

α-syn-tg mice [3] = assay: Neurodegeneration analysis (TH-positive striatal fibers); type: in vivo; conditions: 5 mg/kg IP daily for four weeks
Procedure: as §1
(§5) Blind-coded sagittal brain sections were incubated with primary antibodies at 4° C. for overnight. The next day, sections were incubated with either biotinylated- or FITC-conjugated secondary antibodies and detected with avid in D-HRP HRP (ABC elite, Vector Laboratories, Burlingame, Calif.) and with Tyramide Signal Amplification Direct system (PerkinElmer, Waltham, Mass.), respectively.
(§6) To determine the neuroinflammation, neurodegeneration, accumulation of α-synuclein, and NF-κB activation, brain sections were stained with Iba-1, GFAP, TNFα, IL-1β, IL6, human α-synuclein, NF-κB, and phosphorylated-NF-κB antibodies, respectively. Sections were imaged by Olympus BX41 microscope. All immunoreactivity levels were determined by optical density analysis using Image Quant 1.43 program (NIH) except the immunoreactivity of Iba-1. The cell numbers of Iba-1-positive cells were determined per field (230 μm×184 μm) of each animal based on cell body recognition using Image Quant 1.43 program (NIH). […]

NF-κB [4] = assay: Western blot analysis of NF-κB in cytosolic and nuclear fractions of cortex homogenates; type: in vivo, mice; conditions: 5 mg/kg IP daily for four weeks
Procedure: as §1, §2
Biochemical analysis using brain homogenates from the cortex of non-tg and α-syn-tg mice was performed. Brain homogenates were separated into cytosolic and nuclear fractions by centrifugation, and each fraction was analyzed by western blot analysis. Total levels of NF-κB were not altered by HE administration in non-tg and α-syn-tg mice. […] A positive interactive effect of HE treatment on the level of phosphorylated-NF-κB (Finteraction (1, 16)=11.55, p=0.0037) was confirmed by two-way ANOVA.

α-syn-tg mice [5] = assay: Immunohistochemical analysis of pro-inflammatory cytokines in a mouse model of PD; type: in vivo; conditions: neocortex of α-syn-tg mice; 5 mg/kg IP daily for four weeks
Procedure: as §1, §5
(§7) To determine the neuroinflammation, neurodegeneration, accumulation of α-synuclein, and NF-κB activation, brain sections were stained with Iba-1, GFAP, TNFα, IL-1β, IL6, human α-synuclein, NF-κB, and phosphorylated-NF-κB antibodies, respectively. Sections were imaged by Olympus BX41 microscope. All immunoreactivity levels were determined by optical density analysis using Image Quant 1.43 program (NIH) except the immunoreactivity of Iba-1. The cell numbers of Iba-1-positive cells were determined per field (230 μm×184 μm) of each animal based on cell body recognition using Image Quant 1.43 program (NIH).
as §4

NF-κB [6] = assay: Immunofluorescence analysis of NF-κB and phosphorylated-NF-κB in neocortex; type: in vivo, mice; conditions: 5 mg/kg IP daily for four weeks
Procedure: as §1, §5, §6

α-syn-tg mice [7] = assay: Immunohistochemical analysis of brain immune cells (Iba-1 microglia, GFAP astrocytes) in a mouse model of PD; type: in vivo; conditions: 5 mg/kg IP daily for four weeks
Procedure: as §1, §5, §7
FIGS. 1A-1F show analysis of the numbers of brain immune cells.
A positive interactive effect of HE treatment on Iba-1 optical density (Finteraction (1, 16)=80.48, p<0.0001), numbers of microglia branches (Finteraction (1, 16)=83.25, p<0.0001), GFAP optical density (Finteraction (1, 16)=15.88, p=0.0011), and numbers of astroglial branches (Finteraction (1, 16)=4.04, p=0.0616) was confirmed by two-way ANOVA.

α-synuclein mRNA = α-synuclein mRNA levels; type: in vivo, mice; conditions: model of PD
Procedure: as §1, §3
Intraneuronal accumulations of α-synuclein aggregates are typical pathological features of PD. […]

α-synuclein [8] = assay: Immunohistochemical and immunofluorescence analysis of α-synuclein accumulation in brain sections; type: in vivo, mice; conditions: 5 mg/kg IP daily for four weeks
Procedure: as §1, §5, §7
To determine whether the behavioral improvements observed in the α-syn-tg mice were related to alterations of α-synuclein pathology, immunohistochemical analysis was performed for α-synuclein with brain sections from non-tg and α-syn-tg mice treated with either vehicle or HE. […]
Immunofluorescence analysis of human α-synuclein in the frontal cortex of non-tg and α-syn-tg mice treated with either vehicle or hypoestoxide was performed. […] Additionally, fluorescence intensity against human α-synuclein was analyzed in frontal cortex of the brains. Immunoreactivity against human α-synuclein was not detected in the frontal cortex of non-tg mice, but it was highly detected in the frontal cortex of α-syn-tg mice. […]

α-syn-tg mice [9] = assay: Open field and round beam behavioral tests; type: in vivo; conditions: 5 mg/kg IP daily for four weeks
Procedure: as §1
Following treatment, the mice were assessed for gait and coordination using the open field and the round beam tests. Total activity was calculated as total beam breaks in ten minutes. The impairment of gait and balance were assessed by round beam analysis. Three consecutive trials of one minute each were run in one day. The numbers of foot slippages and distance traveled were recorded. The total errors on the beam were calculated as foot slips/distance traveled.
A positive interactive effect of HE treatment on the beam break numbers (Finteraction (1, 16)=15.61, p=0.0011) and total round beam errors (Finteraction (1, 16)=8.58, p=0.0098) was confirmed by two-way ANOVA.

[10] = frontal cortex of α-syn-tg mice

`C=C1C(=O)C[C@H]2C[C@@H]3O[C@@]3(C)CC[C@@H]3O[C@@]3(C)C[C@@H](OC(C)=O)[C@H]1C2(C)C` [HE, hypoestoxide] was tested, and the “levels of SDS-insoluble α-synuclein” value (α-synuclein [1]) was “significantly decreased”, the “levels of α-synuclein in SDS-soluble fractions” value (α-synuclein [1]) was “not affected” and the “mRNA level of IL6” value (α-syn-tg mice [2]) was “clearly decreased”. The “mRNA level of IL-1β” value (α-syn-tg mice [2]) was “clearly decreased”, the “mRNA level of TNFα” value (α-syn-tg mice [2]) was “clearly decreased” and the “loss of TH-positive striatal fibers” value (α-syn-tg mice [3]) was “significantly decreased”. For the same molecule, the “total levels of NF-κB (western blot)” value (NF-κB [4]; cortex homogenates of non-tg and α-syn-tg mice) was “not altered”, the “level of phosphorylated NF-κB (western blot)” value (NF-κB [4]; cortex homogenates of α-syn-tg mice, nuclear fractions) was “significantly reduced” and the “level of IL6 (immunohistochemical analysis)” value (α-syn-tg mice [5]) was “significantly reduced”. For the same molecule, the “level of IL-1β (immunohistochemical analysis)” value (α-syn-tg mice [5]) was “significantly reduced”, the “level of TNFα (immunohistochemical analysis)” value (α-syn-tg mice [5]) was “significantly reduced” and the “total levels of NF-κB (immunofluorescence)” value (NF-κB [6]; neocortex of non-tg or α-syn-tg mice) was “not changed”. For the same molecule, the “level of phosphorylated-NF-κB (immunofluorescence)” value (NF-κB [6]; neocortex of α-syn-tg mice) was “significantly decreased”, the “levels of astrogliosis (GFAP)” value (α-syn-tg mice [7]; neocortex of α-syn-tg mice) was “significantly decreased” and the “numbers of microglial cells (Iba-1-positive)” value (α-syn-tg mice [7]; neocortex of α-syn-tg mice) was “significantly decreased”. For the same molecule, the “numbers of branches per glial cell” value (α-syn-tg mice [7]; α-syn-tg mice) was “decreased”, the “levels of α-synuclein mRNA” value (α-synuclein mRNA) was “not affected” and the “immunoreactivity against C-terminus human α-synuclein” value (α-synuclein [8]; [10]) was “significantly decreased”. The “level of human α-synuclein immunoreactivity (immunofluorescence)” value (α-synuclein [8]; [10]) was “significantly decreased”, the “levels of α-synuclein in neurons and neuropil (immunohistochemical analysis)” value (α-synuclein [8]; α-syn-tg mice, frontal cortex, hippocampus, striatum) was “significantly decreased” and the “beam break numbers (open field test)” value (α-syn-tg mice [9]) was “reduced these errors to levels observed in non-tg mice”. The “total round beam errors” value (α-syn-tg mice [9]) was “reduced these errors to levels observed in non-tg mice”.
